Key:
Type in all cases: in vivo
Avena fatua [1] = assay: greenhouse pre-emergence treatment, AVEFA; settings: Avena fatua, 480 h, AVEFA, chlorotoluron solo 62.5 gai/ha, 20 DAT
In short: (§1)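 Pre-emergence spray of compounds, alone or as combinations formulated as 10% emulsion concentrate in water, directly after sowing in loamy sand (~3.0% humus); pots hooded until rooting, kept at 10-25° C or 20-35° C per species for 2 to 4 weeks. Damage scored 0-100 (100 = no emergence/complete destruction); Colby expected value E=X+Y−(X·Y/100).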

Ambrosia elatior = assay: greenhouse pre-emergence treatment, AMBEL; settings: Ambrosia artemisiifolia, 480 h, AMBEL, 20 DAT
In short: as §1

Alopecurus myosuroides = assay: greenhouse post-emergence treatment, ALOMY; settings: Alopecurus myosuroides, 480 h, ALOMY, 20 DAT
In short: (§2)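 Scoring ran on a 0-100 scale, 100 meaning no emergence or destroyed above-ground parts, over a 2-4 week period; Colby formula E=X+Y−(X·Y/100) gave expected mixture effects. Species grew separately in loamy sand (about 3.0% humus) at 10-25° C or 20-35° C, with water as solvent.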

Papaver rhoeas = assay: greenhouse post-emergence treatment, PAPRH; settings: Papaver rhoeas, 480 h, PAPRH, 20 DAT
In short: (§3)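 Visual herbicidal effect (0–100) recorded over a 2 to 4 week test period after foliar treatment at plant heights of 3 to 15 cm. Expected combination effects derived by the Colby formula from single-component effects X and Y.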

Avena fatua [2] = assay: greenhouse post-emergence treatment, AVEFA; settings: Avena fatua, 480 h, AVEFA, 20 DAT
In short: as §2

Matricaria chamomilla = assay: greenhouse post-emergence treatment, MATCH; settings: Matricaria chamomilla, 480 h, MATCH, chlorotoluron solo 125 gai/ha, 20 DAT
In short: as §3

Lolium multiflorum = assay: greenhouse post-emergence treatment, LOLMU; settings: Lolium multiflorum, 480 h, LOLMU, chlorotoluron solo 500 gai/ha, 20 DAT
In short: as §2

Echinocloa crus-galli = assay: greenhouse post-emergence treatment, ECHCG; settings: ECHCG, chlorotoluron solo 500 gai/ha, 20 DAT
In short: as §3

Bromus sterilis = assay: greenhouse post-emergence treatment, BROST; settings: Bromus sterilis, 480 h, BROST, 20 DAT, read-out: % activity
In short: as §2

[3] = chlorotoluron solo 125 gai/ha, read-out: % activity
[4] = chlorotoluron solo 250 gai/ha, read-out: % activity

Cc1ccc(NC(=O)N(C)C)cc1Cl [chlorotoluron]
pest or weed control at 62.5 g/ha (Avena fatua [1]): 0% | pest or weed control at 125 g/ha (Ambrosia elatior; chlorotoluron solo 125 gai/ha): 0% | pest or weed control at 500 g/ha (Ambrosia elatior; chlorotoluron solo 500 gai/ha): 40% | pest or weed control at 125 g/ha (Alopecurus myosuroides; [3]): 30% | pest or weed control at 250 g/ha (Alopecurus myosuroides; [4]): 40% | pest or weed control at 500 g/ha (Alopecurus myosuroides; chlorotoluron solo 500 gai/ha): 65% | pest or weed control at 62.5 g/ha (Papaver rhoeas; chlorotoluron solo 62.5 gai/ha): 0% | pest or weed control at 125 g/ha (Papaver rhoeas; [3]): 0% | pest or weed control at 250 g/ha (Papaver rhoeas; [4]): 20% | pest or weed control at 500 g/ha (Papaver rhoeas; chlorotoluron solo 500 gai/ha, read-out: % activity): 25% | pest or weed control at 125 g/ha (Avena fatua [2]; [3]): 0% | pest or weed control at 250 g/ha (Avena fatua [2]; chlorotoluron solo 250 gai/ha): 40% | pest or weed control at 500 g/ha (Avena fatua [2]; chlorotoluron solo 500 gai/ha): 70% | pest or weed control at 125 g/ha (Matricaria chamomilla): 50% | pest or weed control at 500 g/ha (Lolium multiflorum): 80% | % activity (Echinocloa crus-galli): 65% | pest or weed control at 62.5 g/ha (Bromus sterilis; chlorotoluron solo 62.5 gai/ha): 0% | pest or weed control at 125 g/ha (Bromus sterilis; chlorotoluron solo 125 gai/ha): 0%

— patent US10966426B2, “Herbicidal compositions comprising phenylpyrimidines” (BASF SE, priority 2016, dated 2021)
